Literature values as cited in US20160271121A1, “ANTIFUNGAL COMBINATION THERAPY” (Gavis Pharmaceuticals, priority 2015, published 2016).

Legend:
onychomycosis = settings: 48 weeks of topical efinaconazole
reference strains = settings: in vitro, versus other antifungals

C=C1CCN([C@H](C)[C@](O)(Cn2cncn2)c2ccc(F)cc2F)CC1 [Efinaconazole, (2R,3R)-2-(2,4-difluorophenyl)-3-(4-methylenepiperidin-1-yl)-1-(1H-1,2,4-triazol-1-yl)butan-2-ol]
mycological cure rate compared with other antifungal agents (onychomycosis): more than that for 48 weeks of topical ciclopirox and comparable to 12 weeks of oral itraconazole
potency in broth dilution tests (reference strains): more potent than terbinafine, ciclopirox, itraconazole, and amorolfine
